pEC50: −log10 of the molar value.

In assay [1] the target is T1, BRD4 (Homo sapiens, UniProt O60885).
T1 construct: BRD2, BRD3 and BRD4 protein levels were measured by western blot; endogenous in cells; host or cells: HEK293 (ATCC)
Briefly: Western blot degradation of BRD4 in HEK293 cells. It counts as cell-based. The conditions noted are these: HEK293, lenalidomide 10 μM preincubated 2 h, PROTAC 100 nM, 4 h. Background: In western blotting, separated proteins are transferred to a membrane and probed.
Excerpt: Primary antibodies used for western blotting included anti-human BRD2(1:2000, rabbit monoclonal, Abcam, ab139690), anti-human BRD3 (1:1000, rabbit monoclonal, Abcam, ab264420), anti-human BRD4 (E2A7X) (1:1000, rabbit monoclonal, Cell Signaling
Science, # 32-2500).Secondary antibodies used for western blot included: anti-mouse horseradish peroxidase-linked antibody (1:3000, sheep, GE Healthcare Life Sciences, #NA931V), and anti-rabbit horseradish peroxidase-linked antibody (1:8000, donkey, GE Healthcare Life Sciences, #NA934V). Reagent for degradation assay and compounds
4.2 Cell lines and culture
HEK293, A549, SKOV-3, HCT116 cells (ATCC)were grown in DMEM (Gibco),and all cells were supplemented with 10% (v/v) fetal bovine serum (FBS) (Sigma), 100 mg/mL penicillin/streptomycin solution (Thermo Fisher Scientific) and maintained at 37 °C and 5% CO2 in a humidified atmosphere. All cells used were tested monthly using the Mycoalert
4.3 Degradation assays by Western blot
General method of Western blot: Lysates were sonicated and centrifuged at 4 °C at 20000 g for 15 min, and the supernatants were transferred to new tubes. Protein concentration of cell lysates was measured using the DC Protein Assay kit (BIO-RAD) following manufacturer's instructions. Cell lysates were mixed with reducing sample buffer (0.5 M Tris-HCl (pH 6.8),
at 95°C. Proteins were separated by SDS–PAGE (SDS polyacrylamide gel electrophoresis) with 25–40 µg of total protein per well, transferred to 0.2-μm-pore nitrocellulose membranes (BIO-RAD), then blocked in 5%(w/v) milk in PBS and 0.5% Tween-20, and incubated overnight at 4°C with primary antibodies described in section 4.1. Secondary antibodies were added for 1h at room temperature after 3 times washing with blocking buffer. After 6 times of washing
with PBS (Thermo Fisher Scientific) and 0.5% Tween-20, Blots were detected using the Clarity Western ECL Substrate (BIO-RAD) and visualized on iBright CL 750 (Thermo Fisher Scientific) and images were analyzed using iBright Firmware 1.7.0.
4.3.1 Evaluation of the degradation capacity of PROTACs […]

The test system of assay [2] is A549 spheroids. Briefly: CellTiter-Glo 3D assay on spheroids. Type of assay: cell-based. The following applies: Homo sapiens, 72 h, read-out: EC50, spheroid metabolic activity. As to the method:
4.5 Cell viability assay on 3D cell cultures
The single cell suspension containing 2.5 ×10^4 cells/ml of A549 or 2 ×10^4 cells/ml of HCT116 were seeded into the U-shaped, 384-well ULA plates (cat. no. MS-9384UZ, S-bio), each well containing 80 μl single cell suspension. The 384-well ULA plates were sealed with Breath-Easy semipermeable tape (cat. no. BEM-1, Diversified Biotech) to prevent evaporation. The spheroids were put into incubator and then cultured at 37 °C and 10% CO2. After 48h of spheroids formation, the spheroids were treated with various concentrations of compounds or 0.05% DMSO. After 72h treatment, each spheroid in the culture medium was pipetted into white micro-96-well plates (cat. no. 236108, ThermoFisher) and an equal volume of Cell Titer-Glo 3D (cat. no. G9683, Promega) reagent was added. Luminescence readouts were the same as described above for 2D culture.
For orientation: In ATP-based viability assays light output follows the ATP content of the culture.

With `Cc1sc2c(c1C)C(c1ccc(Cl)cc1)=N[C@@H](CC(=O)NCCOCCOCCNC(=O)C[C@H](NC(=O)COCCOCCOCCOCCn1cc(CCC(=O)N[C@@H](CC(=O)NCCOCCOCCNc3cccc4c3C(=O)N(C3CCC(=O)NC3=O)C4=O)C(=O)NCCOCCOCCNc3cccc4c3C(=O)N(C3CCC(=O)NC3=O)C4=O)nn1)C(=O)NCCOCCOCCNC(=O)C[C@@H]1N=C(c3ccc(Cl)cc3)c3c(sc(C)c3C)-n3c(C)nnc31)c1nnc(C)n1-2` (some centres unmarked) [2J2P], the “BRD4 degradation efficiency on addition of lenalidomide” value in assay [1] is “significantly reduced”.

As usually defined, the pEC50 is −log10 of the EC50, conventionally taken in molar units. With `Cc1ncsc1-c1ccc(CNC(=O)C2CC(O)CN2C(=O)C(NC(=O)COCCOCCOCCNC(=O)CC2N=C(c3ccc(Cl)cc3)c3c(sc(C)c3C)-n3c(C)nnc32)C(C)(C)C)cc1` (centres unmarked) [MZ1, reference compound], the negative-log EC50 (pEC50) in assay [2] was 7.10.
